Measurements as given in patent publication US8193356B2, “Heterocycle compound, and production process and application thereof” (Aska Pharmaceutical Co., Ltd., priority 2005, dated 2012).

What was measured:
TNFα production = test: Inhibitory action on galactosamine- and LPS-induced TNFα production; format: in vivo; settings: mouse, 0.5 mg/kg orally, serum TNFα one hour after galactosamine and LPS i.v., ELISA
Experimental: A dose (0.5 mg/kg) of the test compound suspended in 0.5% (W/V) CMC-Na aqueous solution was orally administered to a mouse. After one hour, galactosamine (800 mg/kg) and LPS (5 μg/kg) were intravenously administered to induce TNFα production. The amount of TNFα in serum one hour after the administration of galactosamine and LPS was measured by ELISA method.

[1] = tested on: T1, PDE IV isozyme separated from U937 cultured cell; test: PDE IV inhibitory action; format: biochemical; settings: cAMP as substrate, 30° C. for 20 minutes, Probit method
T1 construct: PDE IV isozyme separated from U937 cultured cell by an ion exchange chromatography was used
Experimental: PDE IV isozyme separated from U937 cultured cell by an ion exchange chromatography was used. The PDE IV isozyme was added to ethylene glycol so that the final concentration of the isozyme was 30% by weight, and the solution was stored at −20° C. The stored solution was dissolved in use. The enzyme activity was measured by using cAMP as a substrate.
On the other hand, the test compound was dissolved in dimethylsulfoxide (DMSO) so that the final concentration of the test compound was 1% by weight (2.5 μL/tube), and the resulting solution was named Solution B.
Formulation of the incubation buffer (pH 7.5): Tris-hydrochloric acid (50 mM), magnesium chloride (6 mM), dithiothreitol (2.5 mM), 5-nucleotidase (4 μg/mL), bovine serum albumin (0.23 mg/mL), and cAMP (1 μM)
A mixture of the Solution B of the test compound and the Solution A was incubated at 30° C. for 20 minutes. Then, 1 mL of a slurry of an anion exchange resin (AG1-X8, 200-400 mesh, chloride form; manufactured by Bio-Rad Laboratories, Inc.) was added thereto, and the reaction was stopped by adsorption of an unreacted substrate on the resin.
After the stop of the reaction, the reaction mixture was centrifuged at a centrifugal acceleration of 800×g for 10 minutes, and 250 μL of the resulting supernatant was transferred in a vial. To the vial was added 5 mL of ACS-II (a scintillator manufactured by Amarsham Bioscience), and a [^3H]-adenosine radio activity was measured as a PDE IV activity by a liquid scintillation counter.

CYP3A4 = target: T2, CYP3A4 (Homo sapiens, UniProt P08684); test: Inhibitory action on drug metabolizing enzyme (CYP3A4/BFC high throughput inhibitor screening kit); format: in vitro ADME; settings: CYP3A4 expression system microsome, BFC substrate, 37° C. for 30 minutes
T2 construct: purchased BD Bioscience
T2 sequence (P08684 whole entry): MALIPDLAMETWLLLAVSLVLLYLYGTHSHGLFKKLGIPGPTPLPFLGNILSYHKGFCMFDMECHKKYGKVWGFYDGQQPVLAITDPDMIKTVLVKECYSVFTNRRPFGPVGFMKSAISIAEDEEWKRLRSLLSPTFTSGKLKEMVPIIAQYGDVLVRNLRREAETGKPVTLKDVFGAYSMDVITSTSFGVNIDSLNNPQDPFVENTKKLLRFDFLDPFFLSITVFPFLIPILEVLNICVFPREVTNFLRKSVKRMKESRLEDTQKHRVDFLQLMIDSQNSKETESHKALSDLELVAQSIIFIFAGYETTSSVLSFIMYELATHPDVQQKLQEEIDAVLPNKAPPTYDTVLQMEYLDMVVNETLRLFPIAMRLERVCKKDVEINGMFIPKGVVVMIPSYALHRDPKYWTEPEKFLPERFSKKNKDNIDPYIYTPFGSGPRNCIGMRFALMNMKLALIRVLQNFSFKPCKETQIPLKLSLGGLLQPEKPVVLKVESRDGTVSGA
Experimental: (§1) Inhibitory actions on CYP2D6 and CYP3A4 were measured by using a CYP2D6/AMMC high throughput inhibitor screening kit and a CYP3A4/BFC high throughput inhibitor screening kit (both manufactured by BD Bioscience), respectively. That is, an NADPH generation system, a cofactor, and the test compound were dispersed in a 96-well plate, and AMMC (CYP2D6) and BFC (CYP3A4), which were fluorescent substrates, were added to each well. Further, CYP2D6 expression system microsome and CYP3A4 expression system microsome were added to each well and incubated at 37° C. for 30 minutes. […] Incidentally, as a control substance of this test, roflumilast was used.

CYP2D6 = target: T3, CYP2D6 (Homo sapiens, UniProt P10635); test: Inhibitory action on drug metabolizing enzyme (CYP2D6/AMMC high throughput inhibitor screening kit); format: in vitro ADME; settings: CYP2D6 expression system microsome, AMMC substrate, 37° C. for 30 minutes
T3 construct: purchased BD Bioscience
T3 sequence (P10635 whole entry): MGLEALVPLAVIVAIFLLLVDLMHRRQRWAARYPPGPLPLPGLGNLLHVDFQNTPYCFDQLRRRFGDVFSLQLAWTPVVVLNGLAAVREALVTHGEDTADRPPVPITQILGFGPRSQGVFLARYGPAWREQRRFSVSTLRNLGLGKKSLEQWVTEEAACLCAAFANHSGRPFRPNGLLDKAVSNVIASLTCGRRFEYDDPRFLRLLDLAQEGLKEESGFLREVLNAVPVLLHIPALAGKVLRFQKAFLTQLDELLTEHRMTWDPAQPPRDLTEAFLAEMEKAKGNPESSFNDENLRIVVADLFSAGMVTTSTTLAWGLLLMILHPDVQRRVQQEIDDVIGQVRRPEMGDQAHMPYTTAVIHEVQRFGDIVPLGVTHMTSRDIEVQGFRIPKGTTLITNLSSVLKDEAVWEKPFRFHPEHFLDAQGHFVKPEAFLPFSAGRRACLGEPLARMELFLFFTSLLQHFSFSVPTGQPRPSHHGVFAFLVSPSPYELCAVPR
Experimental: as §1

SMILES	melting point [°C]	Inhibitory rate (%) of TNFα production in 0.5 mg/kg (TNFα production) [%]	further results
O=c1c2c(Cc3ccccc3)n[nH]c2c2cccnc2n1-c1cccc(OC(F)(F)F)c1 [Example 1, 3-Benzyl-5-(3-trifluoromethoxyphenyl)-1H-pyrazolo[4,3-c][1,8]-naphthyridin-4(5H)-one]	–	47	IC50 [1]: 0.003 µM
O=c1c2c(Cc3ccccc3)n[nH]c2c2cccnc2n1-c1cccc(C(F)(F)F)c1 [Example 2, 3-Benzyl-5-(3-trifluoromethylphenyl)-1H-pyrazolo[4,3-c][1,8]-naphthyridin-4(5H)-one]	–	55	IC50 [1]: 0.007 µM
O=c1c2c(Cc3ccccc3C(F)(F)F)n[nH]c2c2cccnc2n1-c1ccccc1 [Example 8, 5-Phenyl-3-(2-trifluoromethylbenzyl)-1H-pyrazolo[4,3-c][1,8]naphthyridin-4(5H)-one]	292 to 294	51	IC50 (CYP3A4): > 10 µM; IC50 (CYP2D6): > 10 µM; IC50 [1]: 0.003 µM
CC(c1ccccc1)c1n[nH]c2c1c(=O)n(-c1ccccc1)c1ncccc21 (stereo not drawn) [Example 11, 5-Phenyl-3-(1-phenylethyl)-1H-pyrazolo[4,3-c][1,8]naphthyridin-4(5H)-one]	–	49	IC50 (CYP3A4): 8.9 µM; IC50 (CYP2D6): > 10 µM; IC50 [1]: 0.014 µM
O=c1c2c(Cc3ccc(C(F)(F)F)cc3)n[nH]c2c2cccnc2n1-c1cccc(OC(F)(F)F)c1 [Example 25, 5-(3-Trifluoromethoxyphenyl)-3-(4-trifluoromethylbenzyl)-1H-pyrazolo[4,3-c][1,8]naphthyridin-4(5H)-one]	227 to 231	–	–
O=c1c2c(Cc3cccc(OC(F)(F)F)c3)n[nH]c2c2cccnc2n1-c1cccc(OC(F)(F)F)c1 [Example 27, 3-(3-Trifluoromethoxybenzyl)-5-(3-trifluoromethoxyphenyl)-1H-pyrazolo[4,3-c][1,8]naphthyridin-4(5H)-one]	174 to 177	–	–
O=c1c2c(Cc3ccc(OC(F)(F)F)cc3)n[nH]c2c2cccnc2n1-c1cccc(OC(F)(F)F)c1 [Example 28, 3-(4-Trifluoromethoxybenzyl)-5-(3-trifluoromethoxyphenyl)-1H-pyrazolo[4,3-c][1,8]naphthyridin-4(5H)-one]	129 to 132	–	–
O=c1c2c(Cc3ccccc3)n[nH]c2c2ccncc2n1-c1ccccc1 [Example 29, 3-Benzyl-5-phenyl-1H-pyrazolo[4,3-c][1,7]naphthyridin-4(5H)-one]	303 to 307	–	–
CCC(c1ccccc1)c1n[nH]c2c1c(=O)n(-c1ccccc1)c1ncccc21 (stereo not drawn) [Example 43, 5-Phenyl-3-(1-phenylpropyl)-1H-pyrazolo[4,3-c][1,8]naphthyridin-4(5H)-one]	233 to 235	–	–
O=C(Nc1c(Cl)cncc1Cl)c1ccc(OC(F)F)c(OCC2CC2)c1 [Roflumilast, reference compound]	–	50	–

Continued, in another order:

melting point [°C]	SMILES	Inhibitory rate (%) of TNFα production in 0.5 mg/kg (TNFα production) [%]	further results
233 to 236	O=c1c2c(Cc3ccccc3OC(F)(F)F)n[nH]c2c2cccnc2n1-c1cccc(OC(F)(F)F)c1 [Example 26, 3-(2-Trifluoromethoxybenzyl)-5-(3-trifluoromethoxyphenyl)-1H-pyrazolo[4,3-c][1,8]naphthyridin-4(5H)-one]	–	–
183 to 185	CC(c1ccccc1)c1n[nH]c2c1c(=O)n(-c1cccc(OC(F)(F)F)c1)c1ncccc21 (stereo not drawn) [Example 36, 3-(1-Phenylethyl)-5-(3-trifluoromethoxyphenyl)-1H-pyrazolo[4,3-c][1,8]naphthyridin-4(5H)-one]	–	–
235 to 237	CC(c1ccccc1)c1n[nH]c2c1c(=O)n(-c1cccc(C(F)(F)F)c1)c1ncccc21 (stereo not drawn) [Example 42, 3-(1-Phenylethyl)-5-(3-trifluoromethylphenyl)-1H-pyrazolo[4,3-c][1,8]naphthyridin-4(5H)-one]	–	–
234 to 238	O=c1c2c(Cc3cccs3)n[nH]c2c2cccnc2n1-c1cccc(OC(F)(F)F)c1 [Example 45, 3-(2-Thienylmethyl)-5-(3-trifluoromethoxyphenyl)-1H-pyrazolo[4,3-c][1,8]-naphthyridin-4(5H)-one]	–	–
247 to 251	O=c1c2c(Cc3ccsc3)n[nH]c2c2cccnc2n1-c1cccc(OC(F)(F)F)c1 [Example 46, 3-(3-Thienylmethyl)-5-(3-trifluoromethoxyphenyl)-1H-pyrazolo[4,3-c][1,8]-naphthyridin-4(5H)-one]	–	–
